Source: publication PMC11978679, “Pyrazolyl amide-chalcones conjugates: Synthesis and antikinetoplastid activity” (Naunyn-Schmiedeberg's Archives of Pharmacology, 2024)
Where two headings read alike, the source gives them in different places.

Assays:
[1] = system: Trypanosoma cruzi (intracellular amastigotes); experiment: In vitro anti-parasitic assay, T. cruzi (β-galactosidase/CPRG readout); details: TULAHUEN, MRC-5 SV2, read-out: IC50 T. cruzi
[2] = system: Trypanosoma brucei rhodesiense (blood stream trypomastigotes); experiment: Drug susceptibility resazurin assay, T. b. rhodesiense; details: 72 h, read-out: IC50 T. b. rhodesiense
[3] = system: human lung fibroblasts (MRC-5); experiment: In vitro cytotoxicity assay, MRC-5SV2 cells (resazurin); format: cell-based; details: for IC50: Homo sapiens, MRC5, 72 h, cytotoxicity, lung fibroblast, 3 days
Description: (§1) Briefly, 1.5 × 10^5 cells/mL cells were cultured with compound dilutions at 37 °C and with 5% CO2. Cell growth was compared to untreated-control wells (100% cell growth) and medium-control wells (0% cell growth). After 3 days incubation, cell viability was assessed fluorometrically after addition of 50 μL resazurin per well. […] The results were expressed as % reduction in cell growth/viability compared to control wells and an IC50 value was determined.

[4] = system: Trypanosoma brucei brucei (blood stream trypomastigotes); experiment: Drug susceptibility resazurin assay, T. b. brucei; details: 72 h, read-out: IC50 T. b. brucei
[5] = system: Leishmania infantum (intracellular amastigotes); experiment: In vitro anti-Leishmania assay in primary peritoneal mouse macrophages (Giemsa, microscopy); details: Macrophage, 120 h, read-out: IC50 L. infantum
[6] = system: primary mouse macrophages (PMMs); experiment: In vitro cytotoxicity against primary mouse macrophages; format: cell-based; details: for IC50: Macrophage, cytotoxicity, primary mouse macrophages
[7] = system: T. cruzi, T. b. brucei, T. b. rhodesiense and L. infantum; experiment: Antikinetoplastid activity, whole panel, verdict in words; details: compounds lacking the chalcone moiety
[8] = In vitro cytotoxicity assay, MRC-5SV2 cells (resazurin); format: cell-based, human; details: human, MRC-5SV2 cells (human lung fibroblasts); cytotoxicity; read-out: CC50 against MRC-5
Description: as §1

[9] = system: promastigotes of L. aethiopica; details: cited from earlier work
[10] = system: amastigotes of L. aethiopica; design: method as in Bekhit et al. [2015]; details: ref Bekhit et al. [2015]; cited from earlier work
T. b. rhodesiense [11] = system: T. b. rhodesiense; design: method as in Bhambra et al. [2017]; details: ref Bhambra et al. [2017]; read-out: IC50 against T. b. rhodesiense; cited from earlier work
L. amazonensis = system: L. amazonensis; design: method as in Bernardino et al. [2006]; details: ref Bernardino et al. [2006]; read-out: IC50 against L. amazonensis; cited from earlier work
T. b. rhodesiense [12] = system: T. b. rhodesiense; design: method as in Agarwal et al. [2024]; details: imidazo[1,2-a]pyridine-chalcones; ref Agarwal et al. [2024]; read-out: IC50 against T. b. rhodesiense; cited from earlier work
L. panamensis = system: L. panamensis; design: method as in García et al. [2018]; details: ref García et al. [2018]; read-out: EC50 against L. panamensis; cited from earlier work
T. cruzi = system: T. cruzi; design: method as in García et al. [2018]; details: ref García et al. [2018]; read-out: EC50 against T. cruzi; cited from earlier work

Compound: O=C(Cn1ccnc1[N+](=O)[O-])NCc1ccccc1 [Benznidazole, reference compound]
- IC50 [1]: 1.35 µM

Compound: O=C(O)c1cn(-c2ccccc2)nc1-c1ccccc1 [Compound 5, 1,3-diphenyl-1H-pyrazole-4-carboxylic acid]
- IC50 [1]: > 64 µM
- IC50 [2]: > 64 µM
- IC50 [3]: 33 µM
- IC50 [4]: > 64 µM
- IC50 [5]: > 64 µM
- IC50 [6]: > 64 µM
- antikinetoplastid activity, in words [7]: inactive

Compound: CC(=O)c1ccc(NC(=O)c2cn(-c3ccccc3)nc2-c2ccccc2)cc1 [Compound 7, N-(4-acetylphenyl)-1,3-diphenyl-1H-pyrazole-4-carboxamide]
- melting point: 149 to 150 °C
- IC50 [1]: > 64 µM
- IC50 [2]: > 64 µM
- IC50 [3]: 14.4 µM
- IC50 [4]: > 64 µM
- IC50 [5]: > 64 µM
- IC50 [6]: > 64 µM
- antikinetoplastid activity, in words [7]: inactive

Compound: O=C(C=Cc1ccccc1)c1ccc(NC(=O)c2cn(-c3ccccc3)nc2-c2ccccc2)cc1 [Compound 9a, N-(4-cinnamoylphenyl)-1,3-diphenyl-1H-pyrazole-4-carboxamide]
- melting point: 160 to 161 °C
- IC50 [1]: > 53.2 µM
- IC50 [2]: 0.96 ± 0.49 µM
- cytotoxicity against human lung fibroblasts (MRC-5), in words [3]: non-cytotoxic
- IC50 [3]: > 64 µM
- IC50 [4]: 0.77 ± 0.27 µM
- IC50 [5]: 7.16 ± 1.88 µM
- cytotoxicity against primary mouse macrophages (PMMs), in words [6]: non-cytotoxic
- IC50 [6]: 32 µM

Compound: Cc1ccccc1/C=C/C(=O)c1ccc(NC(=O)c2cn(-c3ccccc3)nc2-c2ccccc2)cc1 [Compound 9b, (E)-1,3-diphenyl-N-(4-(3-(o-tolyl)acryloyl)phenyl)-1H-pyrazole-4-carboxamide]
- IC50 [1]: > 64 µM
- IC50 [2]: 0.54 ± 0.24 µM
- cytotoxicity against human lung fibroblasts (MRC-5), in words [3]: non-cytotoxic
- IC50 [3]: > 64 µM
- IC50 [4]: 0.51 ± 0.06 µM
- IC50 [5]: 18.7 ± 9.18 µM
- cytotoxicity against primary mouse macrophages (PMMs), in words [6]: non-cytotoxic
- IC50 [6]: > 36 µM

Compound: COc1cccc(/C=C/C(=O)c2ccc(NC(=O)c3cn(-c4ccccc4)nc3-c3ccccc3)cc2)c1 [Compound 9c, (E)-N-(4-(3-(3-methoxyphenyl)acryloyl)phenyl)-1,3-diphenyl-1H-pyrazole-4-carboxamide]
- CC50 at 3 days [8]: 10.7 µM
- IC50 [3]: 10.7 µM

Compound: COc1ccc(/C=C/C(=O)c2ccc(NC(=O)c3cn(-c4ccccc4)nc3-c3ccccc3)cc2)cc1 [Compound 9d, (E)-N-(4-(3-(4-methoxyphenyl)acryloyl)phenyl)-1,3-diphenyl-1H-pyrazole-4-carboxamide]
- melting point: 174 to 175 °C
- IC50 [1]: > 64 µM
- IC50 [2]: 0.69 ± 0.31 µM
- IC50 [3]: > 64 µM
- IC50 [4]: 1.64 ± 0.12 µM
- IC50 [5]: 31.8 ± 19.1 µM
- IC50 [6]: > 64 µM

Compound: O=C(/C=C/c1ccc(Br)cc1)c1ccc(NC(=O)c2cn(-c3ccccc3)nc2-c2ccccc2)cc1 [Compound 9e, (E)-N-(4-(3-(4-bromophenyl)acryloyl)phenyl)-1,3-diphenyl-1H-pyrazole-4-carboxamide]
- IC50 [1]: > 64 µM
- IC50 [2]: 1.37 ± 0.02 µM
- IC50 [3]: 34.9 µM
- IC50 [4]: 1.13 ± 0.63 µM
- IC50 [5]: > 46.8 µM
- IC50 [6]: > 64 µM

Compound: O=C(/C=C/c1ccccc1Cl)c1ccc(NC(=O)c2cn(-c3ccccc3)nc2-c2ccccc2)cc1 [Compound 9f, (E)-N-(4-(3-(2-chlorophenyl)acryloyl)phenyl)-1,3-diphenyl-1H-pyrazole-4-carboxamide]
- IC50 [1]: 13.4 ± 4.95 µM
- IC50 [2]: 0.81 ± 0.09 µM
- IC50 [3]: > 64 µM
- IC50 [4]: 0.6 ± 0.33 µM
- IC50 [5]: 18.7 ± 9.18 µM
- IC50 [6]: > 64 µM

Compound: O=C(/C=C/c1cccc(Cl)c1)c1ccc(NC(=O)c2cn(-c3ccccc3)nc2-c2ccccc2)cc1 [Compound 9g, (E)-N-(4-(3-(3-chlorophenyl)acryloyl)phenyl)-1,3-diphenyl-1H-pyrazole-4-carboxamide]
- CC50 at 3 days [8]: 6.2 µM
- IC50 [3]: 6.2 µM

Compound: O=C(/C=C/c1cccc(F)c1)c1ccc(NC(=O)c2cn(-c3ccccc3)nc2-c2ccccc2)cc1 [Compound 9h, (E)-N-(4-(3-(3-fluorophenyl)acryloyl)phenyl)-1,3-diphenyl-1H-pyrazole-4-carboxamide]
- IC50 [1]: > 64 µM
- IC50 [2]: 1.56 ± 0.11 µM
- IC50 [3]: 24.8 µM
- IC50 [4]: 6.36 ± 0.11 µM
- IC50 [5]: 21 ± 11 µM
- IC50 [6]: > 48 µM

Compound: O=C(/C=C/c1ccc(F)cc1)c1ccc(NC(=O)c2cn(-c3ccccc3)nc2-c2ccccc2)cc1 [Compound 9i, (E)-N-(4-(3-(4-fluorophenyl)acryloyl)phenyl)-1,3-diphenyl-1H-pyrazole-4-carboxamide]
- IC50 [1]: > 54.2 µM
- IC50 [2]: 1.12 ± 0.74 µM
- IC50 [3]: > 64 µM
- IC50 [4]: 0.78 ± 0.26 µM
- IC50 [5]: > 37.4 µM
- IC50 [6]: > 64 µM

Compound: O=C(/C=C/c1ccc(Cl)c(Cl)c1)c1ccc(NC(=O)c2cn(-c3ccccc3)nc2-c2ccccc2)cc1 [Compound 9j, (E)-N-(4-(3-(3,4-dichlorophenyl)acryloyl)phenyl)-1,3-diphenyl-1H-pyrazole-4-carboxamide]
- melting point: 200 to 201 °C
- IC50 [1]: 46.1 µM
- IC50 [2]: 4.52 µM
- IC50 [3]: 22.3 µM
- IC50 [4]: 4.63 µM
- IC50 [5]: > 64 µM
- IC50 [6]: > 64 µM

Compound: O=C(/C=C/c1cccc([N+](=O)[O-])c1)c1ccc(NC(=O)c2cn(-c3ccccc3)nc2-c2ccccc2)cc1 [Compound 9k, (E)-N-(4-(3-(3-nitrophenyl)acryloyl)phenyl)-1,3-diphenyl-1H-pyrazole-4-carboxamide]
- IC50 [1]: > 64 µM
- IC50 [2]: 8.22 µM
- IC50 [3]: 19.4 µM
- IC50 [4]: 6.69 µM
- IC50 [5]: 45.2 µM
- IC50 [6]: > 64 µM

Compound: O=C(/C=C/c1cccs1)c1ccc(NC(=O)c2cn(-c3ccccc3)nc2-c2ccccc2)cc1 [Compound 9l, (E)-1,3-diphenyl-N-(4-(3-(thiophen-2-yl)acryloyl)phenyl)-1H-pyrazole-4-carboxamide]
- melting point: 210 to 211 °C
- IC50 [1]: > 64 µM
- IC50 [2]: 2.7 ± 0.03 µM
- IC50 [3]: 39.2 µM
- IC50 [4]: 13.2 ± 19 µM
- IC50 [5]: > 53.5 µM
- IC50 [6]: > 64 µM

Compound: O=C(/C=C/c1cccnc1)c1ccc(NC(=O)c2cn(-c3ccccc3)nc2-c2ccccc2)cc1 [Compound 9m, (E)-1,3-diphenyl-N-(4-(3-(pyridin-3-yl)acryloyl)phenyl)-1H-pyrazole-4-carboxamide]
- melting point: 198 to 199 °C
- CC50 at 3 days [8]: 0.26 µM
- IC50 [3]: 0.26 µM

Compound: O=C(/C=C/c1ccc2c(c1)OCO2)c1ccc(NC(=O)c2cn(-c3ccccc3)nc2-c2ccccc2)cc1 [Compound 9n, (E)-N-(4-(3-(benzo[d][1,3]dioxol-5-yl)acryloyl)phenyl)-1,3-diphenyl-1H-pyrazole-4-carboxamide]
- melting point: 182 to 183 °C
- IC50 [1]: > 64 µM
- IC50 [2]: 0.46 ± 0.07 µM
- cytotoxicity against human lung fibroblasts (MRC-5), in words [3]: non-cytotoxic
- IC50 [3]: 64 µM
- IC50 [4]: 3.44 ± 2.88 µM
- IC50 [5]: > 57.4 µM
- cytotoxicity against primary mouse macrophages (PMMs), in words [6]: non-cytotoxic
- IC50 [6]: > 64 µM

Compound: CC(=O)C(C1=NN(C(C)=O)C(c2cn(-c3ccc(Br)cc3)nc2-c2ccc([N+](=O)[O-])cc2)S1)c1ccccc1 (stereo not drawn) [III]
- IC50 against promastigotes of L. aethiopica ([9]; ref Bekhit et al. [2015]): 0.0142 mg/L
- IC50 against amastigotes of L. aethiopica [10]: 0.13 mg/L

Compound: Cc1ccc(-n2cc(/C=C/C(=O)c3cccs3)c(-c3ccccc3)n2)cc1 [II]
- EC50 against promastigotes of L. aethiopica ([9]; ref Bekhit et al. [2014]): 0.079 mg/L

Compound: O=C(/C=C/c1cccnc1)c1ccccc1Br [IV]
- IC50 (T. b. rhodesiense [11]): 0.38 µM

Compound: O=[N+]([O-])c1ccc(N/N=C/c2cnn(-c3ccc(Br)cc3)c2)cc1 [I]
- IC50 (L. amazonensis): 50 µM

Compound: CCCCCCCCCCCCCCCCOP(=O)([O-])OCC[N+](C)(C)C [Miltefosine, reference compound]
- IC50 [5]: 7.13 µM

Compound: Cc1ccc(C(=O)Nc2ccc(S(=O)(=O)O)c3cc(S(=O)(=O)O)cc(S(=O)(=O)O)c23)cc1NC(=O)c1cccc(NC(=O)Nc2cccc(C(=O)Nc3cc(C(=O)Nc4ccc(S(=O)(=O)O)c5cc(S(=O)(=O)O)cc(S(=O)(=O)O)c45)ccc3C)c2)c1 [Suramine, reference compound]
- IC50 [2]: 0.05 µM
- IC50 [4]: 0.04 µM

Compound: O=C(/C=C/c1ccc(Br)cc1)c1ccc(NC(=O)c2cn3ccccc3n2)cc1 [VI]
- IC50 (T. b. rhodesiense [12]): 1.13 µM

Compound: CC(CCCCCCC[n+]1ccn(C)c1)Oc1ccc(C(=O)/C=C/c2ccco2)cc1 (stereo not drawn) [V]
- EC50 (L. panamensis): 0.78 µM
- EC50 (T. cruzi): 0.66 µM
